Data on one compound can be found in patent publication US20230057984A1, “NORMALIZATION OF CULTURE OF CORNEAL ENDOTHELIAL CELLS” (KYOTO PREFECTURAL PUBLIC UNIVERSITY CORPORATION, priority 2011, published 2023).

Experiment [1] deals with Human corneal endothelial cells. As to the kind of experiment: Quantitative PCR of collagen type 1 and fibronectin in HCEC. The format is cell-based. The following applies: SB431542 1 μM, normalized with GAPDH, relative to control. Here is the method: Amplified DNA fragments were electrophoresed with 1.5% agarose gel (Nacalai Tesque, catalog number:01149-76), and detected by staining with ethidium bromide (Nacalai Tesque, catalog number: 14603-51). • Quantitative PCR was performed using the following TaqMan (registered trademark) (Invitrogen) primers. collagen type 1: Hs00164004_m1; fibronectin: Hs01549976_m1; GAPDH: Hs00266705_g1. The PCR was performed using a StepOne™ (Applied Biosystems) real-time PCR system. The GAPDH was used as an internal standard.

Experiment [2] relates to Cynomolgus monkey corneal endothelial cells. As to the kind of experiment: Western blot of Na+/K+-ATPase and ZO-1 in monkey corneal endothelial cells (Example 3). The format is cell-based. Particulars: monkey CEC treated with SB431542 vs fibroblast phenotype control. Here is the method: Next, reaction was allowed for 1 hour at a room temperature with ALEXA FLUOR 488 (INVITROGEN (catalog number: A21206)) and ALEXA FLUOR 594 (INVITROGEN (catalog number: A21203)), diluted with TBS-T by 1,000 fold. After washing with PBS, the sample was encapsulated with VECTASHIELD WITH DAPI (VECTOR LABORATORIES (catalog number: 94010)) onto a slide, followed by observation through confocal microscope (Leica). • Western blot technique: protein extracted by RIPA buffer was electrophoresed with 7.5% polyacrylamide. The separated protein was transferred to a PVDF film (PALL LIFE SCIENCE (catalog number: EH-2222)). […] After washing, bands were detected using an ECL-ADVAVCE Western Blotting Detection Kit (GE healthcare Japan (catalog number: RPN2135V)). […]
P-40 (Nacalai Tesque, catalog number: 23640-94), 0.5% sodium deoxycholate (Nacalai Tesque, catalog number:10712-12), and 0.1% SDS (Nacalai Tesque, catalog number:31607-65)). Thus obtained cell lysate was centrifuged (15,000 rpm, 10 minutes), the supernatant thereof was collected, and the protein was quantitated using a BCA PROTEIN ASSAY KIT (PIERCE, catalog number: 23227). […]

With `NC(=O)c1ccc(-c2nc(-c3ccc4c(c3)OCO4)c(-c3ccccn3)[nH]2)cc1` [SB431542], in experiment [1], the “expression of collagen type 1 at mRNA level (quantitative PCR)” value was “significantly decreased” and the “expression of fibronectin at mRNA level (quantitative PCR)” value is recorded as “significantly decreased”. In addition, in experiment [2], the “expression of Na+/K+-ATPase and ZO-1, protein level (Western blot)” value was “strongly enhanced”.
